≈ marks a conversion by molar mass, not a printed value.
Tests used:
Assay type in all cases: functional
Candida [1] = assay: Antifungal activity against Candida-6 after 72 to 96 hr by two-fold serial dilution method
Staphylococcus aureus = assay: Antibacterial activity against Staphylococcus aureus after 24 hr by two-fold serial dilution method
Bacillus subtilis = assay: Antibacterial activity against Bacillus subtilis after 24 hr by two-fold serial dilution method
Pseudomonas aeruginosa = assay: Antibacterial activity against Pseudomonas aeruginosa after 24 hr by twofold serial dilution method
Enterococcus faecalis = assay: Antibacterial activity against Enterococcus faecalis after 24 hr by two-fold serial dilution method
Candida [2] = assay: Antifungal activity against Candida-51 after 72 to 96 hr by two-fold serial dilution method
Aspergillus niger = assay: Antifungal activity against Aspergillus niger after 72 to 96 hr by two-fold serial dilution method
Aspergillus flavus = assay: Antifungal activity against Aspergillus flavus after 72 to 96 hr by two-fold serial dilution method

SMILES	MIC (Candida [1]) [µg/mL]	MIC (Staphylococcus aureus) [µg/mL]	MIC (Bacillus subtilis) [µg/mL]	MIC (Pseudomonas aeruginosa) [µg/mL]	MIC (Enterococcus faecalis) [µg/mL]	MIC (Candida [2]) [µg/mL]	MIC (Aspergillus niger) [µg/mL]	MIC (Aspergillus flavus) [µg/mL]
CC(C)C1C(=O)CC(c2ccco2)NC1c1ccco1 (stereo unspecified)	50 (≈ 183 µM)	> 100	100 (≈ 366 µM)	50 (≈ 183 µM)	> 100	25 (≈ 91.5 µM)	> 100	> 100
CC(C)C1/C(=N/O)CC(c2ccco2)NC1c1ccco1 (stereo unspecified)	50 (≈ 173 µM)	50 (≈ 173 µM)	50 (≈ 173 µM)	100 (≈ 347 µM)	50 (≈ 173 µM)	50 (≈ 173 µM)	100 (≈ 347 µM)	25 (≈ 86.7 µM)
CC(C)C1C(=O)CC(c2ccco2)N(C=O)C1c1ccco1 (stereo unspecified)	25 (≈ 83 µM)	50 (≈ 166 µM)	25 (≈ 83 µM)	50 (≈ 166 µM)	25 (≈ 83 µM)	50 (≈ 166 µM)	50 (≈ 166 µM)	50 (≈ 166 µM)
CC(=O)N1C(c2ccco2)CC(=O)C(C(C)C)C1c1ccco1 (stereo unspecified)	50 (≈ 159 µM)	12.5 (≈ 39.6 µM)	12.5 (≈ 39.6 µM)	25 (≈ 79.3 µM)	50 (≈ 159 µM)	25 (≈ 79.3 µM)	50 (≈ 159 µM)	50 (≈ 159 µM)
CC(C)C1C(=O)CC(c2ccco2)N(C(=O)c2ccccc2)C1c1ccco1 (stereo unspecified)	12.5 (≈ 33.1 µM)	25 (≈ 66.2 µM)	12.5 (≈ 33.1 µM)	50 (≈ 132 µM)	50 (≈ 132 µM)	12.5 (≈ 33.1 µM)	25 (≈ 66.2 µM)	25 (≈ 66.2 µM)
CCC(=O)N1C(c2ccco2)CC(=O)C(C(C)C)C1c1ccco1 (stereo unspecified)	12.5 (≈ 37.9 µM)	25 (≈ 75.9 µM)	12.5 (≈ 37.9 µM)	25 (≈ 75.9 µM)	50 (≈ 152 µM)	50 (≈ 152 µM)	50 (≈ 152 µM)	25 (≈ 75.9 µM)
C[C@@H]1[C@H](O)[C@@H](C)/C=C/C=C/C=C/C=C/C=C/C=C/C=C/[C@H](O[C@@H]2O[C@H](C)[C@@H](O)[C@H](N)[C@@H]2O)C[C@@H]2O[C@](O)(C[C@@H](O)C[C@@H](O)[C@H](O)CC[C@@H](O)C[C@@H](O)CC(=O)O[C@H]1C)C[C@H](O)[C@H]2C(=O)O [AMPHOTERICIN B]	25 (≈ 27.1 µM)					25 (≈ 27.1 µM)	50 (≈ 54.1 µM)	50 (≈ 54.1 µM)
CN[C@@H]1[C@H](O[C@H]2[C@H](O[C@H]3[C@H](O)[C@@H](O)[C@H](N=C(N)N)[C@@H](O)[C@@H]3N=C(N)N)O[C@@H](C)[C@]2(O)C=O)O[C@@H](CO)[C@H](O)[C@H]1O [STREPTOMYCIN]		25 (≈ 43 µM)	12.5 (≈ 21.5 µM)	25 (≈ 43 µM)	50 (≈ 86 µM)			

— ChEMBL document CHEMBL3045359, “Synthesis, stereochemistry, and antimicrobial evaluation of t(3)-isopropyl-r(2), c(6)-di-2-furanylpiperidin- 4-one and its derivatives” (2006)
